“Also recorded” adds a separate entry of the source.
Columns and labels:
[1] = target: T1, heme oxygenase activity in hHO-1-transfected astrocytes (Homo sapiens, UniProt P09601); test: In vitro HO enzyme activity (bilirubin formation) in hHO-1 transfected cells; format: cell-based; conditions: 6.5 μM, 18 h; hydrochloride
T1 construct: containing the entire protein-coding region (866 bp) of the human HO-1 gene; expressed in transfected cells; host or cells: primary rat astrocytes (also rat C6 glioma and human pancreatic tumor cells), transient transfection with Lipofectamine 2000
T1 sequence (P09601 1-288): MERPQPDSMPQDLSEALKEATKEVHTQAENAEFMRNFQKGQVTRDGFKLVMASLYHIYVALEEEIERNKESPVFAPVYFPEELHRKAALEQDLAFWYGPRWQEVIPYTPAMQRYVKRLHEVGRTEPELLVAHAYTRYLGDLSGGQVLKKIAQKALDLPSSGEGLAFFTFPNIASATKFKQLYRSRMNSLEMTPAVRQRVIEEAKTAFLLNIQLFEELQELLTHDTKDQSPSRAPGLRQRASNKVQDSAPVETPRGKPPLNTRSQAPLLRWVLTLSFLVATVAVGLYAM
Protocol: (§1) Upon reaching >90% confluence, 1×10^6 cells were transiently transfected with 4.0 μg of plasmid DNA-Lipofectamine 2000 complex using Lipofectamine 2000 method according to manufacturer instructions (Invitrogen). […] 12 μg of plasmid DNA and 16 μl of Lipofectamine 2000 reagent were diluted in 1.5 mL opti-MEM I reduced serum medium and incubated for 5 minutes at room temperature with gentle mixing. The two solutions were combined, incubated at room temperature for 20 minutes to promote formation of DNA-lipid complexes and administered to the cells. 2 mL opti-MEM I reduced serum medium was added to the flasks to ensure coverage of the monolayer by the transfection mixture. Following incubation for 6 hours at 37° C., the transfection mixture was replaced with 10 mL of complete media without antibiotics.
Cytosol extracts were prepared for HO activity measurement by the method of Ryter (Ryter, Kvam, Tyrrell 2000). […] Protein concentration of supernatant was measured with Bradford method. […] HO activity was calculated as nanomoles bilirubin per miligram protein per min, assuming an extinction coefficient of 40/mM/cm in chloroform (see FIG. 8).

[2] = test system: hHO-1 transfected primary rat astroglial cultures; test: Protein carbonyl assay (ELISA) in hHO-1 transfected rat astroglia, whole-cell and mitochondrial fractions; format: cell-based; conditions: whole cell and mitochondrial compartments; for oxidative protein damage (protein carbonyls) accruing from hHO-1 transfection: 6.5 μM; for dose dependence of attenuation of oxidative protein damage: transiently transfected rat astroglia, hydrochloride
Protocol: Cells were grown in Ham's F12 and high glucose DMEM (50:50 v/v) supplemented with 10 mM HEPES, 5% heat-inactivated horse serum, 5% heat-inactivated fetal bovine serum, and penicillin-streptomycin (50 U/mL and 50 μg/mL, respectively).
as §1
The cells were sonicated (Sonics & Materials, Danbury, Conn.) at a power level of 50 for 3×20 s in a cooled water bath. […] Whole-cell and mitochondrial preparations were assayed for protein carbonyls as described below.
Protein carbonyls were reacted with 2,4-dinitrophenylhydrazine (DNP) and the hydrazone adducts were detected with anti-DNP antisera. Quantification was achieved by comparison with oxidized BSA standards. Oxidized (carbonylated) BSA was prepared by reacting natural BSA (at 50 mg/mL in PBS) with hypochlorous acid (5 mM) for 1 h at 37° C., followed by overnight dialysis against PBS at 4° C. […] The pellet was resuspended in 2 mL of same buffer, sonicated on ice 2×15 s at 20 W and centrifuged for 20 min at 4° C. at 1,303×g. Protein concentration of supernatant was measured with the RC DC protein assay based on the Lowry protocol (Bio-Rad Laboratories, Hercules, Calif.). All samples were adjusted to 4.0 mg protein/mL. […] Five microliters aliquots of each reaction mixture were mixed with 1 mL PBS and 200 μL replicates were added per well to 96-well immunoplates and incubated overnight at 4° C. After washing with PBS, nonspecific binding sites were blocked with 0.1% Tween 20 in PBS. […] A 6-point standard curve of reduced and oxidized BSA was generated for each plate analyzed. Specific absorbance for each sample was calculated by subtracting basal absorbance of the DNP reagent from the total absorbance.

[3] = test system: flag-tagged HO-1 protein; test: Western blot of flag-tagged HO-1 protein in transfected cells; format: cell-based, human; conditions: 6.5 μM, transiently transfected cells
Protocol: Cells were rinsed twice with cold PBS (pH 7.4) and scraped in iced lysis buffer consisting of 1% Nonidet P-40, 50 mM Tris.HCl (pH 7.4), 30 mM NaCl, 25 mM β-glycerophosphate, 10 mM EDTA, 10 mM EGTA, 1 mM MgCl2, and protease inhibitors (10 mM sodium fluoride, 50 μg/mL AEBBSF, 5 μg/mL leupeptin, 5 μg/mL pepstatin, 5 μg/mL aprotinin). Supernatants were obtained by centrifugation at 15,000 rpm for 15 min at 4° C. Protein contents were determined using the Bradford method. Twenty μg aliquots plus 6×SDS-PAGE loading buffer (300 mM Tris.HCl pH 6.8, 600 mM DTT, 12% SDS, 0.6% bromophenol blue, 60% glycerol) were subjected to 10% sodium dodecyl sulfate-polyacrylamide gel electrophoresis and transferred to the polyvinylidene fluoride membranes. Nonspecific binding was blocked by incubation in Tris buffer saline (pH 7.4) containing 3% nonfat milk and 0.1% Tween 20 for 1 h at room temperature. Blots were probed with mouse anti-FLAG monoclonal antibody (1:200 diluted) and anti-β-actin monoclonal antibody (1:500 diluted). The secondary antibody consisted of horseradish peroxidase-conjugated goat anti-mouse antibody (1:4000 dilution). Protein bands were visualized by enhanced chemiluminescence using ECL western blotting reagents.

SMILES | heme oxygenase activity in hHO-1 transfected cells [1] | oxidative protein damage (protein carbonyls) accruing from hHO-1 transfection [2] | dose dependence of attenuation of oxidative protein damage [2] | expression level of flag-tagged HO-1 protein [3]
Cl.FC[C@@H]1CO[C@@](CCc2ccc(Cl)cc2)(Cn2ccnc2)O1 [QC-47, (2R,4S)-1-{2-[2-(4-Chlorophenyl)ethyl]-4-fluoromethyl-[1,3]dioxolan-2-ylmethyl}-1H-imidazole hydrochloride] | suppressed to levels akin to those of non-transfected and sham-transfected controls; also recorded: significantly attenuated heme oxygenase activity; also recorded: significantly decreased the activity of heme oxygenase-1 | significantly attenuated oxidative protein damage | significant dose dependant attenuations of oxidative protein damage; also recorded: in a dose dependent manner significantly decreased the amount of oxidative damage | without affecting the expression level
Brc1ccc(CCC2(Cn3ccnc3)OCCO2)cc1.Cl [QC-56, 1-((2-(2-(4-Bromophenyl)ethyl)-1,3-dioxolan-2-yl)methyl)-1H-imidazole hydrochloride] | suppressed to levels akin to those of non-transfected and sham-transfected controls; also recorded: significantly attenuated heme oxygenase activity; also recorded: significantly decreased the activity of heme oxygenase-1 | significantly attenuated oxidative protein damage | significant dose dependant attenuations of oxidative protein damage; also recorded: in a dose dependent manner significantly decreased the amount of oxidative damage; also recorded: significant dose-dependant attenuations of oxidative protein damage | without affecting the expression level

Reference: patent US20120020915A1, “Compounds and Methods for Treating Cancer and Diseases of the Central Nervous System” (QUEENS UNIVERSITY AT KINGSTON, priority 2007, published 2012)
